How the values were obtained:
patients with R/R DLBCL = experiment: Treatment duration, modification, and exposure; assay type: in vivo; settings: human, in vivo
Method: CC‐122 hydrochloride, referred to here as CC‐122, as an active pharmaceutical ingredient in capsule (AIC) formulation, was administered orally once daily (QD). An alternate intermittent schedule of CC‐122 QD for five of every seven consecutive days (5/7), which improved tolerability and reduced the frequency and severity of neutropenia in a study of CC‐122 monotherapy in DLBCL, was also explored. CC‐292 was administered orally twice daily (BID) and CC‐223 was administered orally QD. Rituximab was administered on day 8 of cycle 1, day 1 of cycles 2–6, and day 1 of every third cycle thereafter. Patients in arm A received CC‐122 and CC‐223 with or without rituximab (starting at CC‐122 2 mg QD and CC‐223 20 mg QD), patients in arm B received CC‐122 plus CC‐292 with or without rituximab (starting at CC‐122 2 mg QD and CC‐292 500 mg BID), patients in arm C were treated with CC‐223 and CC‐292 (starting at CC‐223 20 mg QD and CC‐292 500 mg BID), and those in arm D received CC‐122 plus rituximab (starting at CC‐122 2 mg QD). In arm D, a CC‐122 3 mg formulated capsule was introduced with the same strength as CC‐122 3 mg AIC. Each dose level was cleared before the next was started. If unacceptable toxicity occurred at the initial dose level, dose reductions for CC‐122 (1.5 mg QD and 1 mg QD) and CC‐223 (15 mg QD) were allowed; no starting dose reductions for CC‐292 were planned. For arm A, the Safety Review Committee (SRC) determined which of the two drugs in the doublet to reduce. For arms B and D, the CC‐122 dose was reduced and for arm C, the CC‐223 dose was reduced. Assignment of patients to study arms was at the discretion of the investigator and based on slot availability per the study design.
Patients who experienced dose‐limiting toxicity (DLT) after receiving ≥1 dose of study treatment or those who received ≥80% of planned doses of CC‐122, CC‐223, CC‐292, and rituximab during cycle 1 without experiencing a DLT were considered DLT‐evaluable. If zero out of ≥3 or ≤1 out of six evaluable patients in a cohort experienced a DLT during cycle 1 in parallel dose cohorts, then dose escalation could occur. DLTs are defined in the Supplementary Materials; individual investigators performed response assessments and determined DLTs. The NTD was defined as the dose level at which ≥2 of six evaluable patients in a cohort experienced a DLT during cycle 1. […] During cycle 1, any adverse event (AE) that led to dose reduction was considered a DLT. Patients could resume CC‐122 at a reduced dose only if they recovered to grade ≤1 within 14 days of dose interruption; two dose reductions were allowed before the patient was withdrawn from the study. Dose reductions were permitted for CC‐122, CC‐223, and CC‐292; no dose reductions were allowed for rituximab, but treatment could be discontinued at the discretion of the investigator. […] For arms A, B, and D, CC‐122 dosing was modified to the intermittent 5/7‐day schedule based on SRC review and escalated until the MTD/RP2D was established. Treatment was given until disease progression, unacceptable toxicity, or patient/physician decision to withdraw consent.
^aTreatment duration defined as date of last derived dose – date of first dose + 1.
^bDefined as the ratio of actual dose received to planned dose over the treatment period.

Aiolos = experiment: Blood pharmacodynamic biomarker Aiolos in CD3+ T cells and CD19+ B cells; assay type: in vivo, human; settings: arm B (with CC‐292), 3 h post‐dose; for median decline in Aiolos levels: 1 mg of CC‐122; for decline in Aiolos levels: 2‐mg CC‐122 group
Method: AEs were assessed according to the National Cancer Institute Common Terminology Criteria for AEs, version 4.03, up to 28 days after the last treatment. Blood samples for PK analysis were collected on days 15 to 28, predose, and at 1.5 and 3 h post‐dose on days 1 and 15 of cycle 1 for all dose cohorts. Additional blood samples were collected on day 15 from patients in dose level 2 of arm C to examine CC‐223 and CC‐292 steady‐state PK. Pharmacodynamic biomarkers of each novel agent were explored at baseline and cycle 1, day 1 (pre‐dose, and at 1.5 and 3 h) and cycle 1, day 15 (pre‐dose, and at 1.5 and 3 h), including cereblon modulation substrates in B and T cells in patients treated with CC‐122 and mTOR signaling pathway biomarkers (e.g., p4EBP1 and pAKT) in patients treated with CC‐223. Tumor assessments were performed at screening and at the end of even‐numbered cycles through cycle 6, then every three cycles through cycle 12, and every 6 months thereafter. Responses were assessed by the investigator per International Working Group 2007 criteria.
Safety analyses were performed on all patients who received ≥1 dose of study treatment (safety population). The PK population comprised all patients who took ≥1 dose of study treatment and had ≥1 measured drug concentration. […] The biomarker‐evaluable population comprised all patients who took ≥1 dose of study treatment and had ≥1 pharmacodynamic assessment. Safety and efficacy analyses were based on the safety population except where noted (PK and biomarkers). PK parameters were calculated using actual times relative to the most recent administration. The median duration of response (DOR) and median PFS were calculated per the Kaplan‐Meier method.
Per cent change from baseline in Aiolos in CD3+ T cells (A) and CD19+ B cells (B) and in p4EBP1 (C) and pAKT (D) at 3 h post‐dose on day 1 of cycle 1 (biomarker‐evaluable population). The change in Aiolos expression in CD3+ T cells and CD19+ B cells was calculated within each avadomide‐ and CC‐223‐containing arm. *p ≤ 0.05 versus baseline; **p ≤ 0.01 versus baseline; ***p ≤ 0.001 versus baseline; DL, dose level; MEFL, molecules of equivalent fluorescence label; NS, not significant

DOHH2 cells = experiment: DOHH2 xenograft model; assay type: in vivo; settings: DLBCL xenograft model (DOHH2, SCID mice); avadomide oral once daily, rituximab 1 mg/kg once weekly
Method: Female severe combined immunodeficiency (SCID) mice (CB17/Icr-Prkdcscid, Charles River) were 8 weeks old, with body weights ranging from 15.0 g to 23.2 g on day 1 of these studies. Each SCID mouse was injected subcutaneously in the right flank with 5 × 10^6 DOHH2 cells (0.2-mL cell suspension). Tumors were calipered in 2 dimensions to monitor growth as their mean volume approached 100 to 150 mm^3. Fourteen days after tumor cell implantation, mice were sorted into treatment groups of 10 mice per group. Tumors were calipered twice weekly during the study. Avadomide was suspended in 0.5% carboxymethyl cellulose (0.25% Tween-80 in deionized water). Vehicle control and avadomide were each administered via oral gavage once daily; rituximab (1 mg/kg) was administered once weekly for the duration of the study.
FIGURE S1 Change in the percentage of apoptotic cells over time (A) and in vivo tumor growth response after combination treatment with avadomide and rituximab (B). Natural killer cell activity against DOHH or RL FL cell lines determined by flow cytometry is shown (A). Female CB17 severe combined immunodeficiency mice implanted subcutaneously with DOHH2 cells were administered vehicle and avadomide once daily and rituximab given 1 mg/kg once weekly (B). SEM, standard error of the mean; TGI, tumor growth inhibition. mm^3

DOHH2 and RL cells = experiment: Antibody-dependent, cell-mediated cytotoxicity (NK cells vs tumor cells, flow cytometry); assay type: cell-based; settings: two DLBCL cell lines; NK cells pretreated with avadomide 1–100 nM, rituximab 1 μg/mL
Method: Purified natural killer (NK) cells from patient peripheral blood mononuclear cell samples were treated with 10 ng/mL rh-IL-2 (R&D) alone or with avadomide (1–100 nM) for 24 hours at 37°C. Cells (1 × 10^6 cells/mL) from 2 FL cell lines, DOHH2 and RL, were stained with CellTrace carboxyfluorescein succinimidyl ester (CFSE; Thermo Fisher Scientific) (200 nmol/L) for 5 minutes at room temperature, then treated with dimethyl sulfoxide (DMSO; vehicle) or rituximab (1 μg/mL) for 1 hour prior to coculture. Target tumor DOHH2 and RL cells (2 × 10^4 cells) were added to DMSO or avadomide pretreated effector NK cells at a 1:5 ratio (target to effector cells) and were incubated for 4 hours at 37°C. Cells were stained with Annexin V-PE and TO-PRO-3 (Thermo Fisher Scientific) according to the manufacturer’s instructions. The percentage of tumor apoptosis was determined by sequential gating for CFSE-positive and double-positive (Annexin V-PE and TO-PRO-3–positive) cells.
FIGURE S1 Change in the percentage of apoptotic cells over time (A) and in vivo tumor growth response after combination treatment with avadomide and rituximab (B). Natural killer cell activity against DOHH or RL FL cell lines determined by flow cytometry is shown (A). […]

Cc1nc2cccc(N)c2c(=O)n1C1CCC(=O)NC1=O (stereo not drawn) [CC‐122, Avadomide]
patients with dose reductions of the drug (patients with R/R DLBCL): 20.5% | ≥1 dose interruption (patients with R/R DLBCL): 59 (67.0) n (%) | ≥1 dose interruption: Adverse event (patients with R/R DLBCL): 49 (55.7) n (%) | ≥1 dose interruption: Other (patients with R/R DLBCL): 35 (39.8) n (%) | ≥1 dose interruption: Per protocol (patients with R/R DLBCL): 6 (6.8) n (%) | ≥1 dose reduction (patients with R/R DLBCL): 18 (20.5) n (%) | ≥1 dose reduction: Adverse event (patients with R/R DLBCL): 11 (12.5) n (%) | ≥1 dose reduction: Other (patients with R/R DLBCL): 5 (5.7) n (%) | ≥1 dose reduction: Per protocol (patients with R/R DLBCL): 1 (1.1) n (%) | median decline in Aiolos levels (Aiolos; CD3+ T cells): approximately 20% | decline in Aiolos levels (Aiolos; CD3+ T cells): approximately 40% | median decline in Aiolos levels (Aiolos; CD19+ B cells): ~5% | decline in Aiolos levels (Aiolos; CD19+ B cells): ~32% | tumor growth inhibition (TGI) (DOHH2 cells): 28% | rituximab‐mediated antibody‐dependent cell‐mediated cytotoxicity (DOHH2 and RL cells): enhancement

Reference: PMC9176062, “Phase Ib study of combinations of avadomide (CC‐122), CC‐223, CC‐292, and rituximab in patients with relapsed/refractory diffuse large B‐cell lymphoma” (EJHaem, 2022)
